# Measurements from the supplement of paper PMC10307832.
# Key:
# Test in all cases: relative viability (nuclei count vs DMSO), 5 days (fraction); higher = more cells survive
# UMC-11 = tested on: UMC-11
# Method in brief: (§1)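 Five library-drug doses in √10 steps were combined with a fixed anchor-drug dose, or a single drug was given alone, by pin tool to lung cancer cell lines in 1536-well plates the day after seeding. Nuclei were stained and counted after 5 days. Relative viability is the nuclei count in treated wells over that in vehicle wells, taken as the median of duplicate plates.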
# NCI-H1355 = tested on: NCI-H1355
# Method in brief: as §1
# NCI-H1648 = tested on: NCI-H1648
# Method in brief: as §1
# LCLC-97TM1 = tested on: LCLC-97TM1
# Method in brief: as §1
# NCI-H1623 = tested on: NCI-H1623
# Method in brief: as §1
# NCI-H596 = tested on: NCI-H596
# Method in brief: as §1
# NCI-H23 = tested on: NCI-H23
# Method in brief: as §1
# NCI-H322M = tested on: NCI-H322M
# Method in brief: as §1
# NCI-H1993 = tested on: NCI-H1993
# Method in brief: as §1
# Calu-6 = tested on: Calu-6
# Method in brief: as §1
# A549 = tested on: A549
# Method in brief: as §1
# NCI-H1299 = tested on: NCI-H1299
# Method in brief: as §1
# EBC-1 = tested on: EBC-1
# Method in brief: as §1
# IA-LM = tested on: IA-LM
# Method in brief: as §1
# NCI-H1703 = tested on: NCI-H1703
# Method in brief: as §1
compound,measurement,setting,value
CC(=O)O[C@@]12CO[C@@H]1C[C@H](O)[C@@]1(C)C(=O)[C@H](O)C3=C(C)[C@@H](OC(=O)[C@H](O)[C@@H](NC(=O)OC(C)(C)C)c4ccccc4)C[C@@](O)([C@@H](OC(=O)c4ccccc4)[C@H]21)C3(C)C [Docetaxel] + COc1cccc2cc(-c3nc([C@H]4CC[C@H](C(=O)O)CC4)n4ncnc(N)c34)[nH]c12 [OSI-027] (partner 0.5 µM),relative viability,UMC-11; first compound 0.0002 µM,0.433
same,relative viability,UMC-11; first compound 0.000632 µM,0.469
same,relative viability,UMC-11; first compound 0.002 µM,0.231
same,relative viability,UMC-11; first compound 0.006325 µM,0.244
same,relative viability,UMC-11; first compound 0.02 µM,0.175
same,relative viability,NCI-H1355; first compound 0.0002 µM,0.431
same,relative viability,NCI-H1355; first compound 0.000632 µM,0.386
same,relative viability,NCI-H1355; first compound 0.002 µM,0.252
same,relative viability,NCI-H1355; first compound 0.006325 µM,0.275
same,relative viability,NCI-H1355; first compound 0.02 µM,0.198
same,relative viability,NCI-H1648; first compound 0.0002 µM,0.28
same,relative viability,NCI-H1648; first compound 0.000632 µM,0.267
same,relative viability,NCI-H1648; first compound 0.002 µM,0.232
same,relative viability,NCI-H1648; first compound 0.006325 µM,0.218
same,relative viability,NCI-H1648; first compound 0.02 µM,0.248
same,relative viability,LCLC-97TM1; first compound 0.0002 µM,0.696
same,relative viability,LCLC-97TM1; first compound 0.000632 µM,0.603
same,relative viability,LCLC-97TM1; first compound 0.002 µM,0.352
same,relative viability,LCLC-97TM1; first compound 0.006325 µM,0.182
same,relative viability,LCLC-97TM1; first compound 0.02 µM,0.118
same,relative viability,NCI-H1623; first compound 0.0002 µM,0.391
same,relative viability,NCI-H1623; first compound 0.000632 µM,0.438
same,relative viability,NCI-H1623; first compound 0.002 µM,0.339
same,relative viability,NCI-H1623; first compound 0.006325 µM,0.335
same,relative viability,NCI-H1623; first compound 0.02 µM,0.298
same,relative viability,NCI-H596; first compound 0.0002 µM,0.805
same,relative viability,NCI-H596; first compound 0.000632 µM,0.767
same,relative viability,NCI-H596; first compound 0.002 µM,0.505
same,relative viability,NCI-H596; first compound 0.006325 µM,0.372
same,relative viability,NCI-H596; first compound 0.02 µM,0.241
same,relative viability,NCI-H23; first compound 0.0002 µM,0.804
same,relative viability,NCI-H23; first compound 0.000632 µM,0.587
same,relative viability,NCI-H23; first compound 0.002 µM,0.238
same,relative viability,NCI-H23; first compound 0.006325 µM,0.168
same,relative viability,NCI-H23; first compound 0.02 µM,0.107
same,relative viability,NCI-H322M; first compound 0.0002 µM,0.531
same,relative viability,NCI-H322M; first compound 0.000632 µM,0.532
same,relative viability,NCI-H322M; first compound 0.002 µM,0.471
same,relative viability,NCI-H322M; first compound 0.006325 µM,0.383
same,relative viability,NCI-H322M; first compound 0.02 µM,0.279
same,relative viability,NCI-H1993; first compound 0.0002 µM,0.556
same,relative viability,NCI-H1993; first compound 0.000632 µM,0.616
same,relative viability,NCI-H1993; first compound 0.002 µM,0.6
same,relative viability,NCI-H1993; first compound 0.006325 µM,0.501
same,relative viability,NCI-H1993; first compound 0.02 µM,0.414
Cc1sc2c(c1C)C(c1ccc(Cl)cc1)=N[C@@H](CC(=O)OC(C)(C)C)c1nnc(C)n1-2 [JQ1] + COc1cc2c(Oc3ccc(NC(=O)C4(C(=O)Nc5ccc(F)cc5)CC4)cc3F)ccnc2cc1OCCCN1CCOCC1 [Foretinib] (partner 0.25 µM),relative viability,Calu-6; first compound 0.04 µM,0.848
same,relative viability,Calu-6; first compound 0.1265 µM,0.79
same,relative viability,Calu-6; first compound 0.4 µM,0.756
same,relative viability,Calu-6; first compound 1.265 µM,0.478
same,relative viability,Calu-6; first compound 4 µM,0.406
same,relative viability,A549; first compound 0.04 µM,0.881
same,relative viability,A549; first compound 0.1265 µM,0.76
same,relative viability,A549; first compound 0.4 µM,0.878
same,relative viability,A549; first compound 1.265 µM,0.32
same,relative viability,A549; first compound 4 µM,0.194
same,relative viability,UMC-11; first compound 0.04 µM,0.954
same,relative viability,UMC-11; first compound 0.1265 µM,0.663
same,relative viability,UMC-11; first compound 0.4 µM,0.372
same,relative viability,UMC-11; first compound 1.265 µM,0.286
same,relative viability,UMC-11; first compound 4 µM,0.238
same,relative viability,NCI-H1299; first compound 0.04 µM,1.03
same,relative viability,NCI-H1299; first compound 0.1265 µM,0.947
same,relative viability,NCI-H1299; first compound 0.4 µM,0.819
same,relative viability,NCI-H1299; first compound 1.265 µM,0.558
same,relative viability,NCI-H1299; first compound 4 µM,0.34
same,relative viability,NCI-H1355; first compound 0.04 µM,0.925
same,relative viability,NCI-H1355; first compound 0.1265 µM,0.936
same,relative viability,NCI-H1355; first compound 0.4 µM,0.735
same,relative viability,NCI-H1355; first compound 1.265 µM,0.677
same,relative viability,NCI-H1355; first compound 4 µM,0.562
same,relative viability,EBC-1; first compound 0.04 µM,0.098
same,relative viability,EBC-1; first compound 0.1265 µM,0.0891
same,relative viability,EBC-1; first compound 0.4 µM,0.0572
same,relative viability,EBC-1; first compound 1.265 µM,0.0617
same,relative viability,EBC-1; first compound 4 µM,0.0624
same,relative viability,LCLC-97TM1; first compound 0.04 µM,0.909
same,relative viability,LCLC-97TM1; first compound 0.1265 µM,0.949
same,relative viability,LCLC-97TM1; first compound 0.4 µM,0.823
same,relative viability,LCLC-97TM1; first compound 1.265 µM,0.617
same,relative viability,LCLC-97TM1; first compound 4 µM,0.4
same,relative viability,NCI-H1623; first compound 0.04 µM,0.878
same,relative viability,NCI-H1623; first compound 0.1265 µM,0.809
same,relative viability,NCI-H1623; first compound 0.4 µM,0.716
same,relative viability,NCI-H1623; first compound 1.265 µM,0.496
same,relative viability,NCI-H1623; first compound 4 µM,0.441
same,relative viability,IA-LM; first compound 0.04 µM,0.943
same,relative viability,IA-LM; first compound 0.1265 µM,0.645
same,relative viability,IA-LM; first compound 0.4 µM,0.224
same,relative viability,IA-LM; first compound 1.265 µM,0.0743
same,relative viability,IA-LM; first compound 4 µM,0.0831
same,relative viability,NCI-H596; first compound 0.04 µM,0.951
same,relative viability,NCI-H596; first compound 0.1265 µM,0.61
same,relative viability,NCI-H596; first compound 0.4 µM,0.466
same,relative viability,NCI-H596; first compound 1.265 µM,0.322
same,relative viability,NCI-H596; first compound 4 µM,0.225
same,relative viability,NCI-H23; first compound 0.04 µM,0.986
same,relative viability,NCI-H23; first compound 0.1265 µM,0.772
same,relative viability,NCI-H23; first compound 0.4 µM,0.546
same,relative viability,NCI-H23; first compound 1.265 µM,0.558
same,relative viability,NCI-H23; first compound 4 µM,0.297
same,relative viability,NCI-H322M; first compound 0.04 µM,0.955
same,relative viability,NCI-H322M; first compound 0.1265 µM,1.15
same,relative viability,NCI-H322M; first compound 0.4 µM,0.753
same,relative viability,NCI-H322M; first compound 1.265 µM,0.513
same,relative viability,NCI-H322M; first compound 4 µM,0.441
same,relative viability,NCI-H1993; first compound 0.04 µM,0.794
same,relative viability,NCI-H1993; first compound 0.1265 µM,0.794
same,relative viability,NCI-H1993; first compound 0.4 µM,0.682
same,relative viability,NCI-H1993; first compound 1.265 µM,0.692
same,relative viability,NCI-H1993; first compound 4 µM,0.738
same,relative viability,NCI-H1703; first compound 0.04 µM,0.298
same,relative viability,NCI-H1703; first compound 0.1265 µM,0.284
same,relative viability,NCI-H1703; first compound 0.4 µM,0.313
same,relative viability,NCI-H1703; first compound 1.265 µM,0.318
same,relative viability,NCI-H1703; first compound 4 µM,0.332
